Key:
Type in all cases: in vitro ADME
recombinant FMO3 = target: T1, recombinant FMO3 (Homo sapiens, UniProt P31513); assay: Metabolism of F18 by cDNA-expressed FMO3; settings: F18 10 μM, 50 pmol/mL enzyme, 1 h
T1 construct: purchased BD Gentest (Woburn, MA, USA)
T1 sequence (P31513 1-532): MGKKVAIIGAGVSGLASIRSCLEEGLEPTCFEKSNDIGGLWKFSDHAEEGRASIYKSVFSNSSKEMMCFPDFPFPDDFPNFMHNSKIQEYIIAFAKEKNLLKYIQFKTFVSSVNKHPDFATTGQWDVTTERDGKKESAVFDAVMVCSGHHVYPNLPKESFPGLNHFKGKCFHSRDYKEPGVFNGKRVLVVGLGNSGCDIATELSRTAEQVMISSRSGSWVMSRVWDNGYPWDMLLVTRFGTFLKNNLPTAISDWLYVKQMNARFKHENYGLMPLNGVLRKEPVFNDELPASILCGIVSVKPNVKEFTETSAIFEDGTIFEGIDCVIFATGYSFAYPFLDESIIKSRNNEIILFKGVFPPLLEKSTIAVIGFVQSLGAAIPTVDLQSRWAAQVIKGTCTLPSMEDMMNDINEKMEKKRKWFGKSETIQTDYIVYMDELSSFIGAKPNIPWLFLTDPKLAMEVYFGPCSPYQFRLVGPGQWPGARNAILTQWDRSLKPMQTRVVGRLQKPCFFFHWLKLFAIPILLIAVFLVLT
Procedure: (§1) To further verify the roles of CYPs and FMOs in the metabolism of F18 in humans, F18 (10 μM) was incubated individually with 14 cDNA-expressed human CYP isozymes (50-pmol/mL CYP1A1, CYP1A2, CYP2A6, CYP2B6, CYP2C8, CYP2C9, CYP2C19, CYP2D6, CYP2E1, CYP2J2, CYP3A4, CYP4F2, CYP4F3, and CYP4A11) and three cDNA-expressed FMO enzymes (50-pmol/mL FMO1, FMO3, and FMO5). The incubation conditions were similar to those used for HLMs (described above), with the exception of the incubating time […]. Samples incubated without NADPH were used as the negative control.

monkey liver microsomes = assay: Incubation of F18 with monkey liver microsomes, metabolite profiling; set-up: key: +: Metabolite detected; −: metabolite not detected; settings: F18 50 μM, 1 h
Procedure: (§2) A stock solution of F18 (5 mM) was prepared in methanol. F18 (50 μM) was incubated with RLMs/DLMs/MLMs/HLMs and HLcy (0.5 mg protein/mL) in 50 mM Tris-HCl buffer containing 5 mM MgCl2 (pH 7.4) in a final volume of 200 μL. The final concentration of methanol in the incubation system was 1% (v/v). After 3 min of preincubation at 37°C, the reactions were initiated by the addition of NADPH-regenerating system (10-mM β-NADP, 100-mM 6-G-P and 10-U/mL 6-G-P-DH) or NADH. After incubation for 1 h, the reactions were terminated by the addition of two volumes of ice-cold acetonitrile. Samples without NADPH or NADH were included as controls. The incubation mixture was vortexed and centrifuged at 13,300 × g for 5 min. A 10 μL aliquot of the supernatant was injected into an LC-tandem mass spectrometer (LC-MS/MS) for analysis.
(§3) Metabolic profiling studies were performed with a Finnigan TSQ Quantum MS instrument with an electrospray ionization probe and a Finnigan SURVEYOR HPLC system (Thermo Finnigan, San Jose, CA, USA). HPLC was performed with a Zorbax SB-C18 column (2.1 × 100 mm, 3.5 μm, Agilent Corporation, CA, USA) with a column temperature of 35°C and a flow rate of 200 μL/min. F18 and its metabolites were eluted using a linear gradient method with a mobile phase consisting of solvent A (water with 0.1% formic acid) and solvent B (acetonitrile with 0.1% formic acid). […] The samples were analyzed in the positive-ionization mode, and the TSQ capillary temperature was set to 350°C. Nitrogen was used as both the sheath gas and the auxiliary gas and was delivered at 30 psi and 15 psi, respectively. The spray voltage and tube lens were set to 3,800 V and 123 V, respectively. The full-width half maximum (FWHM) was set to 0.7. MS data were acquired in the selective ion-recording mode or by collecting full scans from 200 to 600 m/z at 1 scan/s. The mass spectrometer and HPLC system were operated using Xcalibur 2.0.7 software.

recombinant FMO5 = target: T2, recombinant FMO5 (Homo sapiens, UniProt P49326); assay: Metabolism of F18 by cDNA-expressed FMO5; settings: F18 10 μM, 50 pmol/mL enzyme, 1 h
T2 construct: purchased BD Gentest (Woburn, MA, USA)
T2 sequence (P49326 1-533): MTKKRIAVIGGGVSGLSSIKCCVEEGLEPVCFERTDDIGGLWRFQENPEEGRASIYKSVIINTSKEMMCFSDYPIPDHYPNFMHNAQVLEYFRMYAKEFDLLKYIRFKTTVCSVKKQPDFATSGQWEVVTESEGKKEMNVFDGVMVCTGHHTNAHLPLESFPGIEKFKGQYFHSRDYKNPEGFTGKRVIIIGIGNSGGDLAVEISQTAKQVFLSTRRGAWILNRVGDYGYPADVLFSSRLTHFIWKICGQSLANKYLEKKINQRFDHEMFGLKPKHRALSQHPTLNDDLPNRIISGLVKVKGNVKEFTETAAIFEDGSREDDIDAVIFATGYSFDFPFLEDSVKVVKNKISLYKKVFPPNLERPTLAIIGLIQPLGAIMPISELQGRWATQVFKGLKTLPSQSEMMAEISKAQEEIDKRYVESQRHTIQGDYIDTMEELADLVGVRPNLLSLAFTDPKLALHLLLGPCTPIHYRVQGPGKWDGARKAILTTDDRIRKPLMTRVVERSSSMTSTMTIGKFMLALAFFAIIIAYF
Procedure: as §1

rat liver microsomes = assay: Incubation of F18 with rat liver microsomes, metabolite profiling; set-up: key: +: Metabolite detected; −: metabolite not detected; settings: F18 50 μM, 1 h
Procedure: as §2, §3

human liver microsomes = assay: Incubation of F18 with human liver microsomes, metabolite profiling by LC-MS/MS; set-up: key: +: Metabolite detected; −: metabolite not detected; settings: F18 50 μM, 1 h
Procedure: as §2, §3

SMILES | Metabolite detected in incubation with recombinant FMO3 (recombinant FMO3) | F18 metabolite detected in MLM (monkey liver microsomes) | Metabolite detected in incubation with recombinant FMO5 (recombinant FMO5) | F18 metabolite detected in RLM (rat liver microsomes) | F18 metabolite detected in HLM (human liver microsomes)
CCCc1cc(=O)oc2c3c(c4c(c12)OC(C)(C)C=C4)OC(CO)CC3=O (stereo not drawn) [Metabolite M1] | not detected | + | not detected | + | +
CCCc1cc(=O)oc2c3c(c4c(c12)OC(C)(C)C=C4)O[C@H](CCl)C[C@H]3O (relative stereo) [Metabolite M3-1, trans-12-hydroxy F18] | detected | + | detected | + | +
CCCc1cc(=O)oc2c3c(c4c(c12)OC(C)(C)C=C4)O[C@H](CCl)C[C@@H]3O (relative stereo) [Metabolite M3-2, cis-12-hydroxy F18] | detected | + | detected | + | +
